Source: patent publication US20080220065A1, “Compositions for treating foot odor and methods of use thereof” (priority 2007, published 2008)

How the values were obtained:
foot odor [1] = assay: efficacy duration study, twenty-six persons, right vs left footwear, olfactory evaluation; assay type: in vivo, human; conditions: for olfactory evaluation of footwear and feet: three days following administration
Protocol: Thereafter, to test the efficacy duration of the preferred mixture and concentration of the present invention, a study was conducted of twenty-six persons, male and female, ranging in ages from 7-71 years, all presenting with foul and distressing foot odor. These twenty-six persons had all of their “right-side” footwear treated with 1-1.25 g of cupric carbonate and their “left-side” footwear with 1-1.25 g sodium bicarbonate. Three days following administration, each shoe worn and both feet of each participant were evaluated via olfactory sense. Evaluation results were the same, without exception, for all participants.

foot odor [2] = assay: initial empirical use studies in footwear
Description: Initial empirical use studies involved finely divided elemental copper powder.

[3] = tested on: ubiquitous microbial cultures collected from common household and mammalian sources; assay: filter disc incubation with streak-inoculated microbial cultures; assay type: cell-based; conditions: filter discs impregnated by aqueous saturation, incubated with the cultures
Protocol: Initial comparative studies were conducted in an effort to validate the antimicrobial activities of cupric compounds, wherein ubiquitous microbial cultures were collected from common household and mammalian sources and isolated in identifiable colonies by streak inoculation.

foot odor [4] = assay: dosing specification study, organoleptic odor evaluation, six volunteers; assay type: in vivo, human; conditions: for organoleptic odor evaluation: after three, 10 and 30 days
Protocol: Dosing specification studies were conducted in order to define a preferred minimum quantity for preferred use; although mindful of the differences in performance, more or less than the preferred minimum quantity could be utilized in alternate compositions. Initial test dosing was approximately 3.5 to 4.0 grams dispersed within each shoe, with excess bumped out through the footwear opening.
In the study, six volunteer participants with confirmed and self-recognized foot odor participated in trials to establish preferred upper and lower specification ranges. […] The left shoes were treated in a variable fashion, from an initial 3.5 gram dose to a final dose of 0.5 grams, via 0.5 gram increments. An organoleptic evaluation was performed by each test subject, and also be the inventor, after three days, 10 days, and 30 days of treatment for each dose.

## O=C([O-])O.[Na+] [sodium bicarbonate, reference compound]
Foot odor [1]; 1-1.25 g per shoe
  olfactory evaluation of footwear and feet: no obvious change in degree of unpleasant odor

## cupric chloride
Foot odor [2]; use in footwear
  contact dermatitis: varying degrees of contact dermatitis

## cupric carbonate, CuCO3.Cu(OH)2
Foot odor [2]; in vivo
  contact dermatitis: contact dermatitis was completely eliminated
[3]
  antimicrobial properties: confirming the existence of antimicrobial properties
Foot odor [1]; 1-1.25 g per shoe
  olfactory evaluation of footwear and feet: no detectable hint of unpleasantness
Foot odor [1]; 1-1.25 g per shoe, in many cases twelve months or more
  duration of effectiveness: at least six
Foot odor [1]; for at least six months
  effectiveness: ~100%
Foot odor [4]; 4.0 gram dosing, positive control, right shoe
  efficacy against foot odor in earlier testing: shown the efficacy
Foot odor [4]; dosed at or above 1.5 grams per shoe
  organoleptic odor evaluation: no detectable trace of odor beyond that of damp footwear
Foot odor [4]; dosed at or below 1.0 gram per shoe
  organoleptic odor evaluation: some malodorous relief, but for a more limited period of time

## CC(=O)[O-].CC(=O)[O-].[Cu+2] [acetate solution, cupric acetate]
[3]
  antimicrobial properties: confirming the existence of antimicrobial properties
